As usually defined, the Tmax is the time at which the peak concentration occurs. In general, half-life refers to how long it takes for the measured level to halve. Higher therefore signals slow decline. What is called EC50 is the concentration that produces a half-maximal response. A word on the Emax: it is the greatest response seen or fitted, relative to the assay's reference. As a reminder, the IC50 is the concentration that inhibits the measured activity by half.

We go through one molecule from article PMC8282797, “Strictly regulated agonist-dependent activation of AMPA-R is the key characteristic of TAK-653 for robust synaptic responses and cognitive improvement” (Scientific Reports, 2021).

Data set [1] deals with rGluA1i. The data set is described as follows: Ca2+ influx assay in rGluA1i CHO cells (species difference). Format: cell-based, rat. As to conditions: 3 mM glutamate. As for the experimental part: (§1) Ca^2+ influx assays using human GluA1/flip and human stargazin co-expressing CHO cells plated at 3 × 10^4 cells/well in 96-well Black Clear plates (Corning Incorporated, Corning, NY) were performed as previously described, with some modifications. For evaluation of the species difference, rat GluA1/flip expressing CHO cells were plated. For mutant channels, the human GluA1i S743A mutant was generated using the In-Fusion HD Cloning Kit (Takara Bio Inc., Kusatsu, Japan) according to the manufacturer's protocol and transiently introduced to CHO cells by Gene Pulser II Electroporation System (Bio-Rad Laboratories, Inc., Hercules, CA). Relative increases of intracellular Ca^2+ levels were monitored for 3 min with a fluorometric imaging plate reader (CellLux, Perkin Elmer Life and Analytical Sciences, Inc., Shelton, CT). […]
(§2) Human GluA1/flip and human stargazin co-expressing CHO cells were plated at 3×10^4 cells/well in 96-well Black Clear plate (Corning Incorporated, Corning, NY). […] Relative increases of intracellular Ca^2+ levels by compounds in the presence and absence of 3 mM L-glutamate were monitored for 3 min by fluorometric imaging plate reader (CellLux, Perkin Elmer Life and Analytical Sciences, Inc., Shelton, CT). Activity of compound was defined as integration value of fluorescence value of each detection point. […] EC50 values were calculated by logistic regression analysis.

Data set [2] in a line: Pharmacokinetics in monkeys. Format: in vivo. Particulars: monkey, plasma, po, 0.03 mg/kg.
Data set [3] deals with rats. Nature of the data set: Evaluation of convulsion. Format: in vivo, rat. Particulars: 100 mg/kg, p.o., 4 h after dosing. As for the experimental part:
The data were extracted from the studies conducted in accordance with the Good Laboratory Practice Regulation. […] The dose levels in the first study and second study were set at "100, 15 and 5 mg/kg, p.o." and "50, 15 and 5 mg/kg, p.o.", respectively. The dosing suspensions were administered into the stomach via a catheter in the morning at the dose volume of 5 mL/kg. Cage side observations to confirm tonic or […] convulsions were conducted before and at 1, 2, 4, 8 and 24 h after dosing in the first study and before and at 1, 4 and 24 h after dosing in the second study.

For data set [4], the target named is T1, GluA2o LBD (Homo sapiens, UniProt P42262). Nature of the data set: SPA binding of [3H]-AMPA to His-LBD. An excerpt:
(§3) We previously reported that structural interference at Ser750 in the channel-closed state of GluA2o LBD might be involved in the molecular mechanisms underlying the lower agonistic effect of AMPA-R potentiators with dihydropyridothiadiazine 2,2-dioxide derivatives and discovered TAK-137, 9-(4-phenoxyphenyl)-3,4-dihydropyrido[2,1-c][1,2,4]thiadiazine 2,2-dioxide (Fig. 1A)[16]. […] TAK-653 bound to the intradimer interface formed by the ligand binding core (Fig. 1B). […] Binding affinity of TAK-653 to the GluA2o LBD was measured by a scintillation proximity assay (SPA) using [^3H]-HBT1, a radio-labeled LBD-binding AMPA-R potentiator, and a His-tagged GluA2o LBD protein (His-LBD)[21]. […] Binding of [^3H]-TAK-653 to His-LBD was also measured by SPA.
The SPA assays were performed as previously described, with some modifications. First, 62.5 μg YSi (2–5 μm) copper his-tag SPA beads (PerkinElmer Inc., Waltham, MA) and 0.25 μg His-tagged GluA2o LBD protein (His-LBD) were incubated in 100 μL PBS containing 0.01% NP-40 and 100 μM glutamate for the [^3H]-HBT1/LBD binding assay, containing 0.01% NP-40 and the indicated amount of glutamate for the [^3H]-TAK-653/LBD binding assay or containing 0.001% Triton X-100 for the [^3H]-AMPA/LBD binding assay in 96-well Luminunc plates (Thermo Fisher Scientific Inc.) overnight at 4 °C. Subsequently, test compound and tritium-labeled ligand (40 nM [^3H]-HBT1, 20 nM [^3H]-TAK-653 or 20 nM [^3H]-AMPA) were added to each well. Specific binding was defined as total binding minus nonspecific binding, which was estimated in the presence of 0.25 μg of control protein (His-tagged macrophage MIF protein) instead of His-LBD or in the presence of 3 mM AMPA. Radioactivity derived from the bound radio ligand was measured using a microplate scintillation counter (TopCount NXT, PerkinElmer Inc.).

The target of data set [5] is T2, hGluA1i (Homo sapiens, UniProt P42261).
T2 construct: expressed in transfected cells; host or cells: CHO cells
T2 sequence (P42261 19-906 isoform P42261-2 limits assumed): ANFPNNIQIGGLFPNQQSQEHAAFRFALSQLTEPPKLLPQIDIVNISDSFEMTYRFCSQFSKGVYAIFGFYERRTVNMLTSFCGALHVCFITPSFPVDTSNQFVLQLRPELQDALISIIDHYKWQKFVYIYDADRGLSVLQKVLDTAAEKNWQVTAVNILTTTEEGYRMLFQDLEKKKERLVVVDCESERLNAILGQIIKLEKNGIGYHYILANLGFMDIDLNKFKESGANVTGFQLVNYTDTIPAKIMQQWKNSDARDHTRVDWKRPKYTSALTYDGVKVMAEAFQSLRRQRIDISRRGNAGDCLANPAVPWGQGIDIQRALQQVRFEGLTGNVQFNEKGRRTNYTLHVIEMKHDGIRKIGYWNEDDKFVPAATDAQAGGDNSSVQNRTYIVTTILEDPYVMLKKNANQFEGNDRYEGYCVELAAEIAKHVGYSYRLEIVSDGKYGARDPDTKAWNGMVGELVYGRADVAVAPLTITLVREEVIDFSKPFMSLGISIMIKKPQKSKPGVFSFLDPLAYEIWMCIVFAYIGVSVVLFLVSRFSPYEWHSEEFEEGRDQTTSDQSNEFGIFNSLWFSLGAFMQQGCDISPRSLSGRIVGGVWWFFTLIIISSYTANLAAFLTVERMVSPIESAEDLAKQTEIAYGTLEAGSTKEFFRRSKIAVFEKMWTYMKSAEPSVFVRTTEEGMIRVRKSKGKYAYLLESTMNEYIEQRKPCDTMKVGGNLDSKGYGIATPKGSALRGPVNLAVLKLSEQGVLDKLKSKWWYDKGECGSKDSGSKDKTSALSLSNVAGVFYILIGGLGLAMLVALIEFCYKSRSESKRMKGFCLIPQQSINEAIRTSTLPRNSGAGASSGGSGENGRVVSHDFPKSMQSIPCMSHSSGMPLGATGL
T2 sequence (Q9Y698 whole entry partner): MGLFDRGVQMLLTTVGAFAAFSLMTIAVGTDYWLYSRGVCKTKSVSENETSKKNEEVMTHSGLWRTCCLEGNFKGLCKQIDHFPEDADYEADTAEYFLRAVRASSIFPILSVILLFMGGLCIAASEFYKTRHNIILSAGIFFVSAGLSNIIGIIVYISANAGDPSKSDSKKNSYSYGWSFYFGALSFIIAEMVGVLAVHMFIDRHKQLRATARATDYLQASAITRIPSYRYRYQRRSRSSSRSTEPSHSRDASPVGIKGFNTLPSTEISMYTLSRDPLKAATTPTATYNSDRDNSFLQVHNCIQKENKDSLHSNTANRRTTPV
Nature of the data set: Ca2+ influx assay in hGluA1i CHO cells. Format: cell-based. Particulars: in the presence of glutamate (3 mM). As for the experimental part:
as §1, §2

Data set [6] addresses T1, GluA2o LBD. The data set is described as follows: SPA displacement of [3H]-HBT1 from His-tagged GluA2o LBD. Particulars: 40 nM [3H]-HBT1, 100 μM glutamate, read-out: IC50, inhibition of binding between [3H]-HBT1 and His-LBD.
Source text: as §3
The SPA assays were performed as previously described, with some modifications. […] Radioactivity derived from the bound radio ligand was measured using a microplate scintillation counter (TopCount NXT, PerkinElmer Inc.).
A general note: Loss of bound radioactivity is the signal in a displacement assay; it reports binding, not function.

T1 sequence (P42262 with tags, fused parts or gaps): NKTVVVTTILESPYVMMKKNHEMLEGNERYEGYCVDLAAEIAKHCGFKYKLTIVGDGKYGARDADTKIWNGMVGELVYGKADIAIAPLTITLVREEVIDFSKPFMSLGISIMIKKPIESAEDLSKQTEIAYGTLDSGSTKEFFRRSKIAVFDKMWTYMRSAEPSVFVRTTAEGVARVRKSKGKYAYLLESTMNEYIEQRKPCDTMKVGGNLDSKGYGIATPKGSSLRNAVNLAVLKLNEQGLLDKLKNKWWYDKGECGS

Regarding `CC1=CN2CCS(=O)(=O)N=C2C(c2ccc(OC3CCCCC3)cc2)=N1` [TAK-653, 9-[4-(Cyclohexyloxy)phenyl]-7-methyl-3,4-dihydropyrazino[2,1-c][1,2,4]thiadiazine 2,2-dioxide], the “Fold difference in the EC50 value between rat and human receptors” value in data set [1] amounted to 1.1 fold. In data set [2], the time to peak (Tmax) was found to be 8 h and the half-life was 9.4 ± 3.8 h. The Convulsions entry in data set [3] is “chronic and tonic convulsions in 1 animal”. In data set [4], the “Inhibition of specific binding of [3H]-AMPA to His-LBD” value is recorded as “did not inhibit”. Moreover, in data set [4] (SPA, 20 nM [3H]-AMPA, read-out: EC50 of increase in [3H]-AMPA binding), the EC50 was found to be 1500 ± 200 nM. The maximum response (Emax) in data set [4] (SPA, 20 nM [3H]-AMPA, read-out: Emax of increase in [3H]-AMPA binding) came out at 19.9 ± 3.4%. Also, the concentration giving a half-maximal response (EC50) in data set [5] was 3300 nM. Moreover, the 50% inhibitory concentration (IC50) in data set [6] stood at 260 nM.
